The values below come from patent US5589506A, “Stilbene derivative and stilbene analog derivative, and use thereof” (Morinaga Milk Industry Co., Ltd., priority 1993, dated 1996).

The subject of data set [1] is 12-lipoxygenase. Conditions: background; cited from earlier work.
For data set [2], the target named is T1, 12-lipoxygenase (Rattus norvegicus, UniProt F1LQ70).
T1 construct: The pelleted platelets were rinsed twice with a washing buffer; from tissue; host or cells: platelets of Sprague Dawley male rat (sonicate, 100,000 x g supernatant)
T1 sequence (F1LQ70 1-663): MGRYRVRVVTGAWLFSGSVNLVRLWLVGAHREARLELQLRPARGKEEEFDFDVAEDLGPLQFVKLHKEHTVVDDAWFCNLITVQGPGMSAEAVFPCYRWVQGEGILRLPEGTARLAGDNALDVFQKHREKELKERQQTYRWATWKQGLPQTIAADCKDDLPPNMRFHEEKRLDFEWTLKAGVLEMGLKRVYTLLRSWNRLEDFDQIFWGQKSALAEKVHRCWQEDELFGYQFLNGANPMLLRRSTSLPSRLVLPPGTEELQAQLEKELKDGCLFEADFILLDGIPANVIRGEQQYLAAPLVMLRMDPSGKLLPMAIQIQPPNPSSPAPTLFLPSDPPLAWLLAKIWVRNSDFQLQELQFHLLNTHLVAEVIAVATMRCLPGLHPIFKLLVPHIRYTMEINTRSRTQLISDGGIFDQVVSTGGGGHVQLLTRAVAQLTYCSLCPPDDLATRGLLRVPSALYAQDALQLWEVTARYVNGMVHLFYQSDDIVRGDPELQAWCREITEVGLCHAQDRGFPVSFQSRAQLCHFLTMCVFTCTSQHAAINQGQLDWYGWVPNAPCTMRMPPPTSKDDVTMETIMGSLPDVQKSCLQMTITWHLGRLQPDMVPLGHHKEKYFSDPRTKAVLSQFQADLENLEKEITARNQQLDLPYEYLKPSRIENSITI
Nature of the data set: 12-lipoxygenase inhibition assay (rat platelet enzyme solution). Type of data set: biochemical, Sprague Dawley male rat. The protocol: The test was performed to examine inhibitory effect of various compounds on the 12-lipoxyganase activity.
1) Preparation of Enzyme Solution
A Sprague Dawley male rat was anesthetized with ether and bled from abdominal aorta using a syringe filled with about one-tenth volume of 3.8% sodium citrate. Blood was centrifuged at 180×g for 15 minutes at room temperature to pellet sanguineous platelet blood plasma. The resultant supernatant was again centrifuged at 1800×g for 10 minutes at 4° C. The pelleted platelets were rinsed twice with a washing buffer (50 mM Tris-hydrochloric acid buffer containing 154 mM sodium chloride and 2 mM EDTA, pH: 7.4). The platelets were then suspended in one-twentieth volume of a resuspension buffer (50 mM Tris-hydrochloric acid buffer containing 154 mM sodium chloride and 5.5 mM glucose, pH: 7.4). The platelets were then sonicated at 4° C. and centrifuged at 100,000×g for 30 minutes to obtain a supernatant as a 12-lipoxgenaseenzyme solution.
2) Procedure for 12-lipoxgenase inhibition assay
The enzyme solution described above was diluted with the resuspension buffer above mentioned to prepare an assay solution so as to include about 2 mU/ml of 12-lipoxygenase. […] The resultant mixture was incubated at 37° C. for 5 minutes. Subsequently, 3 μl of a 2.5 mM arachidonic acid solution in ethanol was added to incubate with for another 5 minutes at 37° C., then the reaction was ceased by the addition of 600 μl of methanol. After being centrifuged at 10,000×g for 5 minutes, 12-hydroxyeicosatetraenoic acid recovered in the supernatant was separated with a reverse phase high-performance liquid chromatography equipped with a […] the activity of 12 lipoxygenase.
The enzyme solution was prepared according to the same manner as in Test Example 1.
It was prepared according to the same procedure as in Test Example 1.
Measurement was performed according to the same procedure as in Test Example 1.
The measurement was performed according to the same procedure as in Test Example 1.

The target of data set [3] is T2, 5-lipoxygenase (Rattus norvegicus, UniProt P12527).
T2 construct: Cultured cells were collected and washed twice; host or cells: RBL-1 rat basophilic leukemia cells (sonicate, 10,000 x g supernatant)
T2 sequence (P12527 1-673): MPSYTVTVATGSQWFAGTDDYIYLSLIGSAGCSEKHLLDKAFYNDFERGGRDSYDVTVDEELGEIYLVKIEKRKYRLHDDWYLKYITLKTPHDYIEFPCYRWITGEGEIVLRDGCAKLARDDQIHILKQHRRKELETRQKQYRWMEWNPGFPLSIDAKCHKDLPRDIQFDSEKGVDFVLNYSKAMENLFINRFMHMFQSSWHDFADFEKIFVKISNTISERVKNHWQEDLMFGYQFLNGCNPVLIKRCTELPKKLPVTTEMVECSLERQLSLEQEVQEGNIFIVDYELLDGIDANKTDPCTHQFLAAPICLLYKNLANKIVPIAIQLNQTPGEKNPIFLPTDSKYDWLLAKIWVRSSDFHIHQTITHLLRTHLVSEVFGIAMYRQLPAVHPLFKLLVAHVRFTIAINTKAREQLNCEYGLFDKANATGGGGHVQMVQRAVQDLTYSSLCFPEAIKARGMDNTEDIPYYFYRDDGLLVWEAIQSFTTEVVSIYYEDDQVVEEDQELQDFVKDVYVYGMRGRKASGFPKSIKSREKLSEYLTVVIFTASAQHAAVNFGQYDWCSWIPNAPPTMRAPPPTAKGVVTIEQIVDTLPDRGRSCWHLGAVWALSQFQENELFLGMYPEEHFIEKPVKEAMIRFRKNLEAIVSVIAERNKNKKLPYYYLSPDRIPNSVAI
In words: 5-lipoxygenase inhibition assay (rat basophilic leukemia cell RBL-1 enzyme solution). The format is biochemical. The protocol:
The test was carried out to examine the selectivity toward 12-lipoxgenase of the compounds of the first embodiment in the present invention.
i) Preparation of 5-lipoxgenase enzyme solution
Rat basophilic leukemia cells (RBL-1, ATCC CRL1378) were cultured in Dulbecco modified Eagle's medium containing 10% new-born bovine serum.
Cultured cells were collected and washed twice with a 50 mM Tris-buffered saline (containing 154 mM sodium chloride, pH: 7.4, hereinafter described as TBS). The cell suspension (4×10^7 cells/ml) was then sonicated and centrifuged at 10,000×g for 10 minutes.
The resultant supernatant was used to prepare an assay solution.
i) Procedure for 5-lipoxgenase inhibition assay
To an aliquot (15 μl) of the enzyme solution (40 mU/ml equivalent) was added 185 μl of TBS, 50 μl of a 2 mM adenosine triphosphate in TBS, 50 μl of a 12 mM calcium chloride in TBS, 1 μl of a 3 mM indomethacin in ethanol solution, 1 μl of an aqueous 300 mM reduced glutathione solution, and 3 μl of varied concentrated test compounds solution in ethanol. The resultant mixture was incubated at 37° C. for 5 minutes. Subsequently, 3 μl of a 2.5 mM arachidonic acid solution in ethanol was added to incubate the mixture for 2 minutes at 37° C. The reaction was ceased by the addition of 600 μl of methanol After being centrifuged at 10,000×g for 5 minutes, 5-hydroxyeicosatetraenoic acid recovered in the supernatant was separated with a reverse phase high-performance liquid chromatography equipped with a C-18 column and measured the absorption of diene at 234 nm to quantify the activity of the enzyme. […]
The enzyme activities of the compounds of the present invention prepared according to the same procedure as in Examples 54-58 to be described later and baicalein as sample substances at varied concentrations were measured according to the above-mentioned method, and mole concentrations showing 50% 12-lipoxgenase and 5-lipoxgenase inhibition ratios (hereinafter may be described as IC50 values) were obtained from the measured values of the sample substances.

Data set [4] in a line: Deacylation by esterases present in the enzyme solution prepared from rat platelets. The format is in vitro ADME. As to conditions: platelet enzyme solution, 37° C., read-out: conversion (%) from Formula 34b or Formula 35b to Formula 32b; for metabolised at 0.5 h, 10 µM: Reaction time 30 min.; for metabolised at 1 h, 10 µM: Reaction time 60 min. The protocol: The test was performed to examine whether or not deacylated compounds would be formed due to esterases present in the enzyme solution when the compounds in the third embodiment according to the present invention were treated with the same enzyme solution as in Test Example 4.
The enzyme solution was prepared according to the same procedure as described in Test Example 4.
(§1) One ml of the above mentioned enzyme solution was diluted with 11 ml of a resuspension buffer. To an aliquot (300 μl) of this enzyme solution was added 3 μl of a 1.0×10^-3 M test compound solution in dimethyl sulfoxide. The mixture was incubated at 37° C. for an indicated time, then the reaction was ceased by the addition of 1 ml of acetonitrile. Twenty μl of the above mixture was subjected to reverse phase high-performance liquid chromatography equipped with a C-18 column to quantify the amount of deacylated products. As a control, a test using 300 μl of the resuspension buffer solution mentioned above instead of the enzyme solution was also performed.
Conditions of reverse phase high-performance liquid chromatography:
Column: Superspher RP-18(e) (purchased from Merck), 4.0 mm in diameter, 125 mm in length
Flow velocity: 1.0 ml/minute
Eluent: Acetonitrile containing 50 mM NaClO4 and 50 mM orthophosphate-water (55: 45)
Column temperature: 30° C.
Calibration: Absorbance of 280 nm

Data set [5] is described as follows: Deacylation control test in resuspension buffer instead of enzyme solution. Type of data set: in vitro ADME. As to conditions: resuspension buffer instead of the enzyme solution. The protocol:
as §1

Setting [6] is: Table 3, read-out: IC50 values of 12-lipoxygenase (mole).
Where [7] appears, read: Table 12, deacylated compounds, read-out: 12-Lipoxygenase inhibitory effect of deacylated compounds (IC50 values).
Setting [8] is: Table 3, read-out: IC50 values of 5-lipoxygenase (mole).
The mark [9] stands for this setting: Table 23, read-out: 12-Lipoxygenase inhibitory effect IC50.
The mark [10] stands for this setting: Table 23, read-out: 5-Lipoxygenase inhibitory effect IC50.

“Also recorded” adds a separate entry of the source. Read-outs that look alike come from different tables or passages of the source.

One may read the IC50 as the midpoint of a concentration-inhibition curve.

On to `O=c1cc(-c2ccccc2)oc2cc(O)c(O)c(O)c12` [Baicalein, baicalein], for which, in data set [1], the “12-lipoxygenase inhibitory effect (literature, in words)” value was “having an inhibitory effect to 12-lipoxygenase; also recorded: relatively high 12-lipoxgenaseinhibitory activities and a relatively high selectivity”.
With `N#CC(=Cc1ccc(O)c(O)c1)c1ccc([N+](=O)[O-])cc1` [Ex. 17, α-cyano-4-nitro-3',4'-dihydroxystilbene], the IC50 in data set [2] (setting [6]) was determined as 8.8 nM; in data set [2] (setting [7]), 8.8 nM; in data set [3] (setting [8]), 130 nM.
With `N#CC(=Cc1ccccc1)c1ccc(O)c(O)c1` [Ex. 20, α-cyano-3,4-dihydroxystilbene], the IC50 in data set [2] (setting [6]) was 17 nM; in data set [3] (setting [8]), 96 nM.
`N#CC(=Cc1ccc(F)cc1)c1ccc(O)c(O)c1` [Ex. 21, α-cyano-4'-fluoro-3,4-dihydroxystilbene]: the IC50 in data set [2] (setting [6]) is 4.8 nM; in data set [2] (setting [7]), 4.8 nM; in data set [3] (setting [8]), 74 nM.
`N#CC(=Cc1cccc(Cl)c1)c1ccc(O)c(O)c1` [Ex. 22, α-cyano-3'-chloro-3,4-dihydroxystilbene]: the IC50 was 5.1 nM in data set [2] (setting [6]), 5.1 nM in data set [2] (setting [7]) and 34 nM in data set [3] (setting [8]).
With `N#CC(=Cc1ccc(Br)cc1)c1ccc(O)c(O)c1` [Ex. 23, α-cyano-4'-bromo-3,4-dihydroxystilbene], the IC50 was found to be 2.2 nM in data set [2] (setting [6]), 3.6 nM in data set [2] (setting [7]) and 70 nM in data set [3] (setting [8]).
In the case of `Cc1ccc(C=C(C#N)c2ccc(O)c(O)c2)cc1` [Ex. 24, α-cyano-4'-methyl-3,4-dihydroxystilbene], the IC50 in data set [2] (setting [6]) is 2.5 nM; in data set [2] (setting [7]), 4.5 nM; in data set [3] (setting [8]), 52 nM.
Consider `CCc1ccc(C=C(C#N)c2ccc(O)c(O)c2)cc1` [Ex. 26, α-cyano-4'-ethyl-3,4-dihydroxystilbene], for which the results for the IC50 in data set [2] (setting [6]) and in data set [3] (setting [8]) were 4.2 nM and 32 nM, respectively.
`Cc1ccc(C=C(C#N)c2ccc(O)c(O)c2)s1` [Ex. 27, α-(5-methylthiophen-2-ylmethylidene)-3,4-dihydroxybenzeneacetonitrile]: the half-inhibitory concentration (IC50) amounted to 7.7 nM in data set [2] (setting [6]) and 66 nM in data set [3] (setting [8]).
Consider `N#CC(=Cc1ccc(O)c(O)c1)c1csc2ccccc12` [Formula 22c], for which the IC50 in data set [2] (setting [9]) amounted to 8.6 nM; in data set [3] (setting [10]), 56 nM.
Taken in the same sequence, the figures for `N#CC(=Cc1ccc(O)c(O)c1)c1ccc2ccccc2c1` [Formula 23c] were 10 nM and 30 nM.
As for `N#CC(=Cc1ccc2ccccc2c1)c1ccc(O)c(O)c1` [Formula 24c], the IC50 was found to be 5.6 nM in data set [2] (setting [9]) and 28 nM in data set [3] (setting [10]).
Taken in the same sequence, the figures for `N#CC(=Cc1cccc2ccccc12)c1ccc(O)c(O)c1` [Formula 25c] were 5.9 nM and 36 nM.
In the case of `N#CC(=Cc1cc2ccccc2o1)c1ccc(O)c(O)c1` [Formula 26c], the IC50 came to 3.2 nM in data set [2] (setting [9]) and 34 nM in data set [3] (setting [10]).
For `CC(=O)Oc1ccc(C=C(C#N)c2ccc(Cl)cc2)cc1OC(C)=O` [Formula 34b], in data set [4], the metabolised at 0.5 h, 10 µM worked out at 70.9% and the metabolised at 1 h, 10 µM was 82.8%. Also, in data set [5], the “formation of deacylated compound (Formula 32b)” value is “no deacylated compound (Formula 32b) was formed”.
Regarding `CCC(=O)Oc1ccc(C=C(C#N)c2ccc(Cl)cc2)cc1OC(=O)CC` [Formula 35b], in data set [4], the metabolised at 0.5 h, 10 µM came to 56.5% and the metabolised at 1 h, 10 µM turned out to be 64.6%. Besides, the “formation of deacylated compound (Formula 32b)” value in data set [5] is “no deacylated compound (Formula 32b) was formed”.
